Test results from patent US7455861B2, “Angelicae sinensis extracts useful for treatment of cancers” (priority 2004, dated 2008).
pIC50: −log10 of the molar value.

How the values were obtained:
J5 = experiment: Cytotoxicity (IC50) on J5; type: cell-based; details: Homo sapiens
Experimental: Human tumor cell lines (MCF-7, CL1-5, HT-29, Caco-2), human umbilical vascular endothelial cells (HUVEC), and human dermal fibroblasts (HDF) were tested for sensitivity on Angelicae sinensis extracts, ligustilide, n-butylidenephthalide and its derivatives in vitro. The DBTRG-05MG, BCM, HL-60 and J5 cells were grown in RPMI-1640 medium containing 10% fetal calf serum and 100 ng/ml penicillin and […] streptomycin at 37° C. in a humidified atmosphere with 5% CO2. The G5T/VGH, RG2, Ni 8, SVEC and Balb/3T3 cells were cultured in DMEM with 10% fetal calf serum and 100 ng/ml penicillin and […] streptomycin at 37° C. in 5% CO2. Mycoplasma infection of the culture cells was excluded by PCR screening methods before each experiment.
The effects on cell viability after the treatments with different concentrations of the Angelicae sinensis extracts or the active components purified therefrom were evaluated by modified MTT assay in triplicate. Briefly, the cells (5×10^3) were incubated into 96-well plates containing 100 μl of a growth medium. The cells were permitted to adhere for 24 hours, then treated with 100 μl of the herbal extracts or the active components dissolved in the medium. The control contained DMSO of <0.02% (v/v). […] Absorbance at 550 nm of the solutions was measured with MRX Microtiter Plate Luminometer (DYNEX, USA). The absorbance of untreated cells was considered as 100%. […]

DBTRG-05MG cells = experiment: Western blot analysis of apoptosis molecules; type: cell-based, human; details: BP 400 μM
Experimental: DBTRG-05MG cells (human GBM cells) were treated with AS-C (70 μg/ml) for 0, 6, 12, 24 and 48 hours. In another test, DBTRG-05MG cells were treated with BP (400 μM) for 0, 1.5, 3, 6, 12, 24 and 48 hours. The cell pellets were re-suspended in lysis buffer ([…] Tris-HCl, pH 7.5, 1 mM EGTA, 0.5% CHAPS, 10% (v/v) glycerol, 5 mM β-2-mercaptoethanol and 0.1 mM phenylmethylsulfonyl fluoride) and incubated on ice for 30 min, and then centrifuged at 13000×rpm at 4° C. for 20 minutes. The protein concentration of whole cell lysates was measured with BCA protein assay kit (Pierce, Rockford, Ill.) following the manufacturer's instructions. The cell lysates (20 μg/lane) were electrophoresed on 10-12% SDS-PAGE (Bio-Rad, Hercules, Calif.). Proteins were transferred to polyvinyldenefluoride (PVDF) membranes (Amersham Lifesciences, Piscataway, N.J.). The membranes were masked for 1 hour at room temperature with 5% skim milk as the blocking agent, and incubated with the respective antibodies of Fas (FL-335), Fas-L (C-178), caspase 3 (H-277), caspase 8 (H-134), caspase 9 (H-170), Bax (B-9), p16 (F-12), p21 (F-5), p53 (DO-1; 1/100 dilution) (Santa Cruz Biotechnology Inc., CA, U.S.A.), phospho-p53 (Ser15; 1/2000 dilution) and phospho-Rb (Ser795; 1/2000 dilution) (Cell Signaling Technology, MA, USA) for 2 hours at room temperature. Antibody recognition was detected, by incubating the membranes with the respective anti-mouse, anti-rabbit, anti-goat IgG secondary antibodies (1/1000 dilution; Santa Cruz Biotechnology Inc., CA, U.S.A.) conjugated to horseradish peroxidase, for 1 hour at room temperature, and visualized with the ECL Plus chemiluminescence system (Amersham, Arlington Heights, Ill.). For system control, SDS-PAGE gels, for every test sample, were prepared in duplicate, containing the same amount of protein; and the control gel was stained with coomassie blue. The other gel was used for Western Blot analysis. The intensity of the bands was analyzed by densitometry with a GS-800 Calibrated Imaging Densitometer (Quantity One 4.0.3 software; Bio-Rad). […] In addition, the activation of the death receptor-induced apoptosis-related caspases-8 was monitored.

With `CCCC=C1OC(=O)c2ccccc21` [BP, n-Butylidenephthalide] as the compound, how does the IC50 (J5; Table 2) read?
The IC50 was 15 to 20 µg/mL.

What about the pIC50 (J5; Table 2, value in parentheses) of the same compound?
The pIC50 was 3.97 to 4.10.

What about the Caspase-3 (DBTRG-05MG cells) of the same compound?
Its Caspase-3 is “increase”.

What about the “cdk2, cdk4, cdk6 cyclins D1 and cycline E” value (DBTRG-05MG cells) of the same compound?
Its value is “decrease”.

What about the “expression of the Fas Ligand” value (DBTRG-05MG cells) of the same compound?
Its value is “suppressing”.

And the “procaspase 8” value (DBTRG-05MG cells)?
Its value is “declined”.

What about the procaspase-3 (DBTRG-05MG cells) of the same compound?
Its procaspase-3 is “declined”.

And the procaspase-9 (DBTRG-05MG cells)?
Its procaspase-9 is “declined”.

What about the “expression of Fas, increase” value (DBTRG-05MG cells; 1.5 h) of the same compound?
The value was 5.2 times.

What about the p53 phosphorylation increase (DBTRG-05MG cells; 1.5 h) of the same compound?
The p53 phosphorylation increase was 5.2 times.

What about the AIF expression increase (DBTRG-05MG cells; 48 h) of the same compound?
Its AIF expression increase is 2.4 times.

What about the Bax expression increase (DBTRG-05MG cells; 48 h) of the same compound?
The Bax expression increase was 16 times.

What about the Rb phosphorylation decrease (DBTRG-05MG cells; 48 h) of the same compound?
Its Rb phosphorylation decrease is 0.2 times.

What about the “activated caspase-9” value (DBTRG-05MG cells; 48 h) of the same compound?
The value was 25.8 times.

And the “activation of caspase 8” value (DBTRG-05MG cells; 48 h)?
Its value is 137.9.

And the “expression of Fas, increase” value (DBTRG-05MG cells; 48 h)?
Its value is 27.9 times.

What about the p16 expression increase (DBTRG-05MG cells; 48 h) of the same compound?
Its p16 expression increase is 3.1 times.

And the p21 expression increase (DBTRG-05MG cells; 48 h)?
Its p21 expression increase is 2.3 times.

What about the p53 expression increase (DBTRG-05MG cells; 48 h) of the same compound?
Its p53 expression increase is 1.4 times.

And the p53 phosphorylation increase (DBTRG-05MG cells; 48 h)?
The p53 phosphorylation increase was 9.2 times.
